How the values were obtained:
Test in all cases: relative viability (nuclei count vs DMSO), 5 days (fraction); higher = more cells survive
Crenolanib + Linsitinib = compound: CC1(COc2ccc3c(c2)ncn3-c2ccc3cccc(N4CCC(N)CC4)c3n2)COC1 [Crenolanib] + C[C@]1(O)C[C@@H](c2nc(-c3ccc4ccc(-c5ccccc5)nc4c3)c3c(N)nccn32)C1 [Linsitinib] (partner 1 µM)
How it was run: (§1)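 The day after seeding in 1536-well plates, lung cancer cell lines were treated by pin tool with a single drug, or with a fixed anchor-drug dose together with five library-drug doses (not always all listed) in √10 steps. After 5 days, a combined fix-and-stain solution (final 0.05% Triton X-100, 1% formaldehyde, 1 ug/ml Hoechst) was added. Nuclei counted on 4× images gave relative viability as treated counts over vehicle counts, reported as the median of duplicate plates.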

Crenolanib + Dasatinib = compound: CC1(COc2ccc3c(c2)ncn3-c2ccc3cccc(N4CCC(N)CC4)c3n2)COC1 [Crenolanib] + Cc1nc(Nc2ncc(C(=O)Nc3c(C)cccc3Cl)s2)cc(N2CCN(CCO)CC2)n1 [Dasatinib] (partner 0.075 µM)
How it was run: as §1

Crenolanib + Pemetrexed = compound: CC1(COc2ccc3c(c2)ncn3-c2ccc3cccc(N4CCC(N)CC4)c3n2)COC1 [Crenolanib] + Nc1nc2[nH]cc(CCc3ccc(C(=O)N[C@@H](CCC(=O)O)C(=O)O)cc3)c2c(=O)[nH]1 [Pemetrexed] (partner 0.2 µM)
How it was run: as §1

Tivantinib + Lapatinib = compound: O=C1NC(=O)[C@@H](c2cn3c4c(cccc24)CCC3)[C@@H]1c1c[nH]c2ccccc12 [Tivantinib] + CS(=O)(=O)CCNCc1ccc(-c2ccc3ncnc(Nc4ccc(OCc5cccc(F)c5)c(Cl)c4)c3c2)o1 [Lapatinib] (partner 2 µM)
How it was run: as §1

| Cell Line | relative viability (Crenolanib + Linsitinib; first compound 0.01 µM) | relative viability (Crenolanib + Linsitinib; first compound 0.03162 µM) | relative viability (Crenolanib + Linsitinib; first compound 0.1 µM) | relative viability (Crenolanib + Linsitinib; first compound 0.3162 µM) | relative viability (Crenolanib + Linsitinib; first compound 1 µM) | relative viability (Crenolanib + Dasatinib; first compound 0.01 µM) | relative viability (Crenolanib + Dasatinib; first compound 0.03162 µM) | relative viability (Crenolanib + Dasatinib; first compound 0.1 µM) | relative viability (Crenolanib + Dasatinib; first compound 0.3162 µM) | relative viability (Crenolanib + Dasatinib; first compound 1 µM) | relative viability (Crenolanib + Pemetrexed; first compound 0.01 µM) | relative viability (Crenolanib + Pemetrexed; first compound 0.03162 µM) | relative viability (Crenolanib + Pemetrexed; first compound 0.1 µM) | relative viability (Crenolanib + Pemetrexed; first compound 0.3162 µM) | relative viability (Crenolanib + Pemetrexed; first compound 1 µM) | relative viability (Tivantinib + Lapatinib; first compound 0.01 µM) | relative viability (Tivantinib + Lapatinib; first compound 0.03162 µM) | relative viability (Tivantinib + Lapatinib; first compound 0.1 µM) | relative viability (Tivantinib + Lapatinib; first compound 0.3162 µM) |
| --- | --- | --- | --- | --- | --- | --- | --- | --- | --- | --- | --- | --- | --- | --- | --- | --- | --- | --- | --- |
| NCI-H2009 | 1.23 | 1.2 | 1.2 | 1.21 | 1.19 | 0.323 | 0.297 | 0.257 | 0.294 | 0.227 | 1 | 1.06 | 1.07 | 0.966 | 0.847 | 0.917 | 0.595 | 0.914 | 0.958 |
| NCI-H1755 | 1.01 | 0.981 | 0.994 | 1.09 | 0.959 | 0.465 | 0.472 | 0.395 | 0.437 | 0.384 | 0.468 | 0.43 | 0.416 | 0.499 | 0.453 | 1.07 | 1.02 | 0.983 | 1.15 |
| LU99A | 0.547 | 0.559 | 0.531 | 0.628 | 0.603 | 0.492 | 0.579 | 0.669 | 0.581 | 0.522 | 0.22 | 0.204 | 0.151 | 0.197 | 0.198 | 0.987 | 1.14 | 0.889 | 0.905 |
| NCI-H23 | 0.563 | 0.671 | 0.548 | 0.759 | 0.648 | 0.804 | 0.778 | 0.71 | 0.848 | 0.643 | 0.761 | 0.62 | 0.644 | 0.817 | 0.615 | 1.05 | 1.22 | 1.03 | 1.18 |
| PC-3 [JPC-3] | 0.965 | 0.956 | 0.899 | 0.988 | 0.887 | 0.989 | 0.974 | 0.974 | 1.12 | 1.06 | 1.11 |  | 1.01 | 1.21 | 0.889 | 0.433 | 0.546 | 0.424 | 0.486 |
| NCI-H1563 | 1.12 | 1.3 | 1.18 | 1.23 | 1.06 | 0.452 | 0.41 | 0.472 | 0.464 | 0.452 | 0.736 | 0.679 | 0.711 | 0.759 | 0.742 | 1.05 | 0.894 | 0.831 | 0.908 |
| NCI-H520 | 0.89 | 1.07 | 0.853 | 1.08 | 0.868 | 0.244 | 0.194 | 0.197 | 0.244 | 0.309 | 0.701 | 0.792 | 0.628 | 0.684 | 0.702 | 0.893 | 0.822 | 0.638 | 0.795 |
| NCI-H1666 | 0.871 | 0.909 | 0.765 | 0.881 | 0.839 | 0.791 | 0.854 | 0.745 | 0.819 | 0.745 | 0.886 | 0.855 | 0.855 | 0.921 | 0.831 | 0.743 | 0.609 | 0.574 | 0.574 |
| NCI-H1792 | 0.603 | 0.648 | 0.554 | 0.532 | 0.518 | 0.779 | 0.777 | 0.751 | 0.866 | 0.747 | 0.738 | 0.853 | 0.8 | 0.968 | 0.803 | 0.91 | 0.939 | 0.822 | 0.964 |
| HCC-15 | 0.832 | 0.919 | 0.889 | 0.926 | 0.861 | 0.645 | 0.678 | 0.66 | 0.701 | 0.545 | 0.23 | 0.215 | 0.227 | 0.228 | 0.213 | 0.815 | 0.846 | 0.873 | 0.829 |
| NCI-H647 | 1.14 | 1.11 | 1.09 | 1.31 | 1.34 | 0.175 | 0.209 | 0.196 | 0.189 | 0.201 | 0.202 | 0.19 | 0.201 | 0.209 | 0.217 | 1.09 | 0.86 | 0.86 | 1.07 |
| NCI-H2347 | 0.972 | 1.02 | 0.736 | 1.04 | 0.873 | 0.31 |  |  | 0.278 | 0.295 | 0.4 | 0.425 | 0.397 | 0.447 | 0.436 | 0.891 | 0.923 | 0.956 | 1 |
| LOU-NH91 | 1.02 | 0.908 | 0.822 | 0.887 | 0.936 | 0.598 | 0.53 | 0.527 | 0.559 | 0.593 | 0.399 | 0.45 | 0.353 | 0.423 | 0.383 | 0.83 | 0.702 | 0.78 | 0.72 |
| H3255 | 0.923 | 0.872 | 0.92 | 0.938 | 1.04 | 0.323 | 0.266 | 0.376 | 0.422 | 0.338 | 0.597 | 0.563 | 0.544 | 0.553 | 0.589 | 0.275 | 0.234 | 0.294 |  |
| NCI-H1975 | 1.05 | 0.968 | 0.933 | 0.993 | 0.864 | 0.412 | 0.348 | 0.352 | 0.395 | 0.408 | 0.306 | 0.316 | 0.289 | 0.284 | 0.312 | 0.943 | 0.863 | 0.795 | 1.1 |
| NCI-H3122 | 1.03 | 1 | 0.994 | 1.07 | 1.05 | 0.862 | 0.73 | 0.782 | 0.963 | 0.972 | 0.205 | 0.212 | 0.203 | 0.203 | 0.18 | 1.08 | 0.94 | 0.973 | 1.01 |
| NCI-H1395 | 1.6 | 1.11 | 1 | 0.898 | 1.21 | 0.406 | 0.387 | 0.39 | 0.37 | 0.403 | 0.88 | 0.768 | 0.924 | 0.831 | 0.864 | 1.23 | 1.18 | 0.981 | 0.992 |
